The source of these data is patent US20100074920A1 (priority 2006, published 2010).

The assay concerns serum antibodies of test subjects Serum 1B-8B. As to conditions: sera S1B-S8B; streptavidin immobilized peptide.

In the case of “Biotin-aminocaproyl-SRPRVRNIP [Peptide 2B]”, the “binding of serum antibodies (immune response), absorbance at 450 nm” value is reported as “especially effective in binding with certain antibodies”.
